From patent US20240208905A1, “ABIRATERONE DERIVATIVE, PREPARATION AND APPLICATION THEREOF” (GUANGDONG ZHONGKE MEDICINE R&D LTD., priority 2021, published 2024)
Marks after values point to notes of the source that are not given here.

Assays:
[1] = system: experimental rabbit ear acne; experiment: Pharmacodynamics evaluation of acne: coal tar rabbit ear acne model, HE pathology; format: in vivo, Japanese big-ear white rabbits; conditions: 0.01% ointment, 1 g per animal, once a day, two weeks, 10 rabbits per group; for Degree of keratinization: number of rabbits graded + / Degree of keratinization: number of rabbits graded ++ / Degree of keratinization: number of rabbits graded +++ / Degree of keratinization: number of rabbits graded −: hair follicle keratinization
Text: There are 140 male healthy Japanese big-ear white rabbits, weighing 2.0-2.5 kg. After one week of adaptive rearing, 10 rabbits were randomly selected according to their body weights as the normal control group, and the remaining 130 rabbits were coated with coal tar once a day in the area of 2×2 cm2 at 2 cm outside the opening of ear canal, with a thickness of about 0.5 mm (Before coating, the coal tar was heated to melt in a water bath, and the last coal tar shell was removed before each application; the rabbits in normal control group were coated with olive oil by the same method as before). After 3 weeks for modeling, according to the degree of skin lesion, 130 rabbits were randomly divided into 13 groups which is model control group, Example 1 compound (1 group), Example 2 compound (2 groups), Example 3 compound (3 groups), Example 4 (4 groups), Example 5 (5 groups), Example 6 (6 groups), Example 7 (7 groups), Example 8 (8 groups), Example 9 (9 groups), Example 10 (10 groups), Example 11 (11 groups), Example 12 (12 groups), Example 13 (13 groups), and each group had 10 rabbits. After grouping, each dose group were continued to be coated coal tar in the morning, and after the coal tar was removed in the afternoon, apply the test drug or control drug (both 0.01%/10 g ointment, apply 1 g ointment per animal) on the lesion, once a day, for two consecutive weeks (the model control group and the normal control group were coated with the same amount of matrix). 24 hours after the last administration, the animals were sacrificed by air embolism, and the skin (full thickness) of the ear where the administration was administered was taken, fixed with 4% paraformaldehyde solution, stained with HE, and routinely observed for pathology.1.

[2] = system: human prostate cancer cell VCaP nude mouse transplanted tumor model; experiment: Prostate tumor pharmacodynamics experiment: VCaP nude mouse transplanted tumor model; format: in vivo, BALB/c nude mice; conditions: 0.5 mmol·kg−1 i.g. QD; for inhibition in vivo at 500 µmol/kg: Mus musculus, VCaP, po, 600 h, read-out: Growth Inhibition rate (GI); for Tumor volume, day 25: * P<0.05, ** P<0.01 vs solvent control
Protocol: Male BALB/c nude mice (number: 90; age: 6-7 weeks) purchased from Beijing Vital River Laboratory Animal Technology Co., Ltd., were raised in the SPF animal room of Suzhou Shengsu New Drug Development Co., Ltd. at a temperature of 20˜25° C. and a relative humidity 40%˜70%, and bright and dark illumination for 12 hours respectively; these mice were allowed to drink and eat freely. After normal feeding for about 6 days, mice with good physical signs can be selected for this experiment after veterinary inspection. Before grouping, animals were identified at their base of tail using marking pens. After grouping, each animal was identified by ear clipping.
Human prostate cancer cells VCaP were obtained from the Shanghai Cell Bank of the Chinese Academy of Sciences (CAS, cryopreserved in liquid nitrogen in our laboratory).
Under a culture condition of 5% CO2 and 37° C., VCaP cells were routinely cultured in DMEM medium containing 10% fetal bovine serum. Digested with 0.25% trypsin and passaged, VCaP cells were passaged 2-3 times per week based on cell growth, with a passage ratio of 1:3 to 1:5.
The VCaP cells in logarithmic growth phase were collected, counted, and resuspended in 50% DMEM basal medium and 50% Matrigel Matrix, and the cell concentration was adjust to 5×10^7 cells/mL; the cells was placed in an ice box; Cell suspension was aspirated with a 1 ml syringe, and injected subcutaneously to the anterior right armpit of nude mice. Each animal was inoculated with 200 μL (1×10^7 cells/mouse), and a VCaP transplant tumor model in nude mice was established. Regularly observe the status of mice, measure the diameter of the tumor with an electronic vernier caliper, input the data into Excel spreadsheets, calculate the tumor volume, and monitor its growth. When the tumor volume reached 100-300 mm3, 60 mice with good health and similar tumor volume were selected, and divided into 10 groups (n=6) based on the tumor volume using random block method, while ensuring that the average body weight of each group remained consistent as much as possible. The day of grouping was taken as the first day of the experiment (D1). The tumor diameters were measured twice a week after the initiation of the experiment, the tumor volumes were calculated, and the body weights of the animals were weighed and recorded at the same time.
Preparation of DMSO&PEG400&PG (v:v:v, 10:60:30): appropriate volumes of DMSO, PEG400 and PG were drawed respectively, and mixed well. The ratio of DMSO, PEG400 and PG in the mixture is 10:60:30 (v:v:v), and this mixture is used as a blank solvent and stored at room temperature.
Appropriate amount of the test compound was weighed and added into a glass bottle, appropriate volume of solvent DMSO was added, be treated with vortex ultrasonication, then appropriate volumes of PEG400 and PG were added in turn, be vortex mixed to obtain a dosing formulation with a final concentration of 0.05M. The dosing formulation was stored in refrigerator at 2-8° C. after subpackaging, and was stirred evenly with vortex before each administration. The dosing formulation was prepared every 7 days, and was subpackaged and stored in refrigerator at 4° C.
Appropriate amount of ZONK1901-10 was weighed and added into a glass bottle, appropriate volume of corn oil, was added, be treated with vortex ultrasonication evenly, a dosing formulation with a final concentration of 19.58 mg·mL-1 (0.05 M) was obtained.

[3] = Pharmacokinetic experiment after intragastric administration in mice (LC-MS/MS of ZONK1901-1 and ZONK1901-2)
Protocol: To study the pharmacokinetic properties after intragastric administration in mice.
Each mouse was collected at 2-3 discrete points in time.
An LC-MS/MS analysis method for determining the concentrations of ZONK 1901-1 and ZONK1901-2 in mouse whole blood was established. At the same time, the obtained plasma concentration data was calculated by using the pharmacokinetic processing software Pharsight Phoenix WinNonlin8.0 non-compartmental model to calculate relevant pharmacokinetic parameters.

[4] = system: tumor model mice inoculated with Vcap (human prostate cancer cells); conditions: intraperitoneal injections, cited from earlier work
[5] = metabolite ZONK1901-1 (M1) in mouse blood after intragastric administration of the group's compound
[6] = metabolite ZONK1901-2 (M2) in mouse blood after intragastric administration of the group's compound

Structure (SMILES)	degree of inflammatory cell infiltration: number of rabbits graded + [1]	degree of inflammatory cell infiltration: number of rabbits graded ++ [1]	degree of inflammatory cell infiltration: number of rabbits graded +++ [1]	degree of inflammatory cell infiltration: number of rabbits graded − [1]	Degree of keratinization: number of rabbits graded + [1]	Degree of keratinization: number of rabbits graded ++ [1]	Degree of keratinization: number of rabbits graded +++ [1]	Degree of keratinization: number of rabbits graded − [1]	inhibition in vivo at 500 µmol/kg ([2]; day 25, vs solvent control)	Tumor volume, day 25 ([2]; day 25, n=6)	further results
C[C@]12CCC(=NOC(=O)N3CCC(N4CCCCC4)CC3)C=C1CC[C@H]1[C@@H]2CC[C@]2(C)C(c3cccnc3)=CC[C@@H]12 [Example 4, (8S,9S,10R,13S,14S)-10,13-Dimethyl-17-(pyridin-3-yl) -6,7,8,9,10,11,12,13,14,15-decahydro-1H-cyclopentene[a]phenanthrenyl-3(2H)-one O-([1,4′-bipiperidine]-1′-carbonyl)oxime]	5	3	2	0	7	3	0	1	84.2%	377 ± 37 ** mm3	–
Cc1ccccc1C(=O)ON=C1C=C2CC[C@H]3[C@H](CC[C@]4(C)C(c5cccnc5)=CC[C@@H]34)[C@@]2(C)CC1 [Example 5, (8S,9S,10R,13S,14S)-10,13-Dimethyl-17-(pyridin-3-yl) -6,7,8,9,10,11,12,13,14,15-decahydro-1H-cyclopenta[a]phenanthrenyl-3(2H)-one O-(2-methylbenzoyl)oxime]	6	3	1	0	6	4	0	0	85.2%	410 ± 44 ** mm3	–
CNCCC(=O)ON=C1C=C2CC[C@H]3[C@H](CC[C@]4(C)C(c5cccnc5)=CC[C@@H]34)[C@@]2(C)CC1 [Example 6, (8S,9S,10R,13S,14S)-10,13-Dimethyl-17-(pyridin-3-yl) -6,7,8,9,10,11,12,13,14,15-decahydro-1H-cyclopenta[a]phenanthrenyl-3(2H)-one O-(3-(methylamino)propionyl)oxime]	6	3	1	0	5	5	0	0	–	405 ± 15 * mm3	Tumor volume, Day 1 ([2]; Day 1 (day of grouping, start of dosing), n=6): 227 ± 21^ mm3; Growth Inhibition rate (GI) ([2]; day 25, vs solvent control): 80.7% **; AUC0-inf [3, 5]: 2396 nM·h; AUC0-t [3, 5]: 2103 nM·h; Cmax [3, 5]: 679 nM; Tmax [3, 5]: 2.00 h; t1/2 [3, 5]: 2.73 h; AUC0-inf [3, 6]: 2287 nM·h; AUC0-t [3, 6]: 2237 nM·h; Cmax [3, 6]: 421 nM; Tmax [3, 6]: 2.00 h; t1/2 [3, 6]: 3.17 h
CC(=O)O[C@H]1CC[C@@]2(C)C(=CC[C@@H]3[C@@H]2CC[C@]2(C)C(c4cccnc4)=CC[C@@H]32)C1 [ZONK1901-10, abiraterone acetate, reference compound]	–	–	–	–	–	–	–	–	44.1%	765 ± 46 * mm3	Autopsy finding on absorption of the drug [4]: some of the drugs were not absorbed; Adverse findings in tumor model mice ([4]; some mice): developed abdominal distension and died; M2 (ZONK1901-2) in the metabolites ([3]; intragastric administration): not detected
